Data reported in PubChem BioAssay AID463203 (Broad Institute, 2010).
Calls of active or inactive are those of the source.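 The calls were made as follows: active = more than half of replicate measurements showing over 20% loss of kinase signal relative to plate controls; inconclusive = some but at most half of replicates over 20% loss; inactive = no replicate over 20% signal loss.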

Target: Glycogen synthase kinase-3 alpha (Homo sapiens) (UniProt P49840)
Assay: concentration-response blocking of human GSK3A – biochemical, luminescence, cell-free homogeneous, retest, dose response (AID 463203)
Conditions: GSK-3 alpha enzyme, ADP-Glo luminescence, 60 min

Glycogen synthase kinase-3 alpha (Homo sapiens), sequence (P49840 whole entry, looked up): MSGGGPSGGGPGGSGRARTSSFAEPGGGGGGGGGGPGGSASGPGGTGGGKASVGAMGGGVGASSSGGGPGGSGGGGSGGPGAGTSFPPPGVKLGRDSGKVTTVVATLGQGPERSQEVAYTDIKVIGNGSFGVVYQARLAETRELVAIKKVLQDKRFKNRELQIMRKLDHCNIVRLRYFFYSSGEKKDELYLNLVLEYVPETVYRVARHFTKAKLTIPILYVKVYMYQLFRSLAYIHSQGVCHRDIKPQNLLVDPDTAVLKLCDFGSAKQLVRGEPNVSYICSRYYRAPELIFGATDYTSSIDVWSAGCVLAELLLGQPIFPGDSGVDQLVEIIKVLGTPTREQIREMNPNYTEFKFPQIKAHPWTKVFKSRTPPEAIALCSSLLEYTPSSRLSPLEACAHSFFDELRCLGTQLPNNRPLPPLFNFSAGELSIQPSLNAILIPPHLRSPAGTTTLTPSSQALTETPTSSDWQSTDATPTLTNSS

| Compound | AC50 |
| --- | --- |
| CCc1cc(C(=O)c2ccc(C)cc2)c(NC(=O)CCl)s1 | > 30 µM (inactive) |
| O=C(NCC1CCN(Cc2ccccc2Cl)CC1)Nc1cccc(Cl)c1 | > 30 µM (inactive) |
| COc1ccc2nc(NC(=O)CCc3cc(OC)c(OC)c(OC)c3)sc2c1 | 7.29 µM |
| O=[N+]([O-])c1ccc(N/N=C/c2ccc(OCc3cccc4ccccc34)cc2)nc1 | > 30 µM (inactive) |
| Cc1ccc(S(=O)(=O)c2c(C(=O)c3ccccc3)cnc3cc4c(cc23)OCCO4)cc1 | > 30 µM (inactive) |
| Cc1cccc(Nc2ncccc2C(=O)O)c1C | > 30 µM (inactive) |
| CC(C)(C)NC(=O)/C(=C\C=C\c1ccccc1)NC(=O)c1ccc([N+](=O)[O-])cc1 | > 30 µM (inactive) |
| CCc1nnc(NC(=O)c2cccc(S(=O)(=O)N3CC(c4ccccc4)CC3=O)c2)s1 (stereo not drawn) | > 30 µM (inactive) |
| COc1cc(/C=C2\Oc3ccc(C#Cc4ccc(O)cc4)cc3C2=O)cc(OC)c1 | > 30 µM (inactive) |
| CCCCOC(=O)n1ccc(C(=O)Nc2ccccc2OC)n1 | 29.6 µM |
| O=C(OCC1OC2OC3(CCCCC3)OC2C2OC3(CCCCC3)OC12)c1ccccc1 (stereo not drawn) | > 30 µM (inactive) |
| S=C(Nc1cccc(Cl)c1)Nc1cccc2cnccc12 | > 30 µM (inactive) |
| COc1ccc(O)c(-c2nc(N)nc(N)n2)c1 | 3.88 µM |
| COc1ccccc1C(=O)NNC(=O)c1cccc(Br)c1 | > 30 µM (inactive) |
| O=C(c1ccc2c(c1)OCO2)N1CCC2(CC1)OCCO2 | > 30 µM (inactive) |
| O=C(CSc1nc2ccccc2o1)Nc1nc2ccc(Br)cc2s1 | > 30 µM (inactive) |
| CCN(CC)S(=O)(=O)c1ccc2oc(C(=O)N3CCOCC3)c(C)c2c1 | > 30 µM (inactive) |
| CC(C)(C)C(=O)NC(=S)Nc1sc2c(c1C(N)=O)CCC2 | > 30 µM (inactive) |
| Nc1nc(NCCOCCO)nc(N2CCCCCC2)c1[N+](=O)[O-] | 26.4 µM |
| COc1ccc2nc(NC(=O)CSc3nc4ccccc4o3)sc2c1 | 28.8 µM |
| N#Cc1c(Nc2ccccc2)c(C=NCCN2CCOCC2)c[nH]c1=O | > 30 µM (inactive) |
| CC(C)c1ccc(/C=N/NC(=O)c2nnn(-c3nonc3N)c2CN(C)C2CCCCC2)cc1 | > 30 µM (inactive) |
| COc1ccccc1N=c1oc2cc(O)ccc2cc1C(N)=O | 4.68 µM |
| COc1ccc(-n2c(O)c(C=NC3CC3)c(=O)[nH]c2=O)cc1 | 24.9 µM |
| Clc1ccc(Nc2nc(NCCN3CCOCC3)nc(N3CCOCC3)n2)cc1 | > 30 µM (inactive) |
| CC(=O)Nc1ccc(-c2csc(NCc3ccccc3)n2)cc1 | > 30 µM (inactive) |

| Compound | AC50 |
| --- | --- |
| CC1(C)CC(=O)C(C(c2cccnc2)C2C(=O)CC(C)(C)CC2=O)C(=O)C1 | > 30 µM (inactive) |
| Cc1ccc(NC(=O)c2cc(-n3cnnc3)ccc2Cl)cc1 | > 30 µM (inactive) |
| Cc1c(C(=O)OC(C)C)[nH]c2c1C(=O)CCC2 | > 30 µM (inactive) |
| CCOc1cccc(-c2c(C(=O)N/N=C/c3cccnc3)nnn2-c2nonc2N)c1 | 4.67 µM |
| Cc1onc(-c2ccccc2Cl)c1C(=O)Nc1cccc(-c2cn3cccnc3n2)c1 | > 30 µM (inactive) |
| CCC(=O)C1CCCN(C(=O)CCc2nnc(-c3ccc4c(c3)OCO4)o2)C1 (stereo not drawn) | > 30 µM (inactive) |
| O=C(CSc1nc2[nH]ncc2c(=O)n1-c1ccc(Cl)c(Cl)c1)NCc1ccccc1Cl | > 30 µM (inactive) |
| Cc1cccc(C(=O)Nc2cccc(C(=O)N/N=C/c3ccccn3)c2)c1 | 23.3 µM |
| N#CC1=C2SCN(c3ccc(F)cc3)CN2C(=O)CC1c1cccc(F)c1 (stereo not drawn) | 29.4 µM |
| Cc1ccc(C(=O)N2NC(c3ccc(F)cc3)C3C(=O)N(c4ccc(C)c(C)c4)C(=O)C32)cc1 (stereo not drawn) | > 30 µM (inactive) |
| Cc1cnc(NC(=O)C2CC(=O)N(c3ccc4c(c3)OCCO4)C2)s1 (stereo not drawn) | > 30 µM (inactive) |
| Cc1ccc(N(Cc2ccc([N+](=O)[O-])cc2)C(=O)c2ccco2)cc1C | > 30 µM (inactive) |
| O=C1NC(=Nc2ccccc2Cl)S/C1=C\c1cccc([N+](=O)[O-])c1 | > 30 µM (inactive) |
| Cc1cc(OC(=O)c2c(C)cc(O)cc2O)cc(O)c1C(=O)O | 27.8 µM |
| CCN1C(=O)C(=C/C=C/c2ccco2)C(=O)N(CC)C1=S | > 30 µM (inactive) |
| NC(=O)Cn1cc(/C=N\NS(=O)(=O)c2cccc([N+](=O)[O-])c2)c2ccccc21 | > 30 µM (inactive) |
| Cc1ccc(NC(=O)CSc2nnc(-c3ccncc3)o2)cc1 | > 30 µM (inactive) |
| O=C(c1ccco1)c1cn(CC(=O)N2CCCC2)c2ccccc12 | > 30 µM (inactive) |
| Cc1cccc(/C(N)=N/OC(=O)c2ccc3c(c2)OCO3)c1 | 24.7 µM |
| CCOC(=O)c1nc(NCc2ccccc2C)c2ccccc2n1 | > 30 µM (inactive) |
| Cc1cccc(NC(=O)CSCC(=O)OCc2ccccn2)c1 | > 30 µM (inactive) |
| Cc1ccc(N2C(S)=C(C#N)C(=O)NC2c2ccco2)cc1 (stereo not drawn) | > 30 µM (inactive) |
| O=C1N/C(=N\S(=O)(=O)Cc2ccccc2)S/C1=C/c1cccc([N+](=O)[O-])c1 | > 30 µM (inactive) |
| COc1ccc(OC)c(C2CC(=O)N3CN(c4cccc(Cl)c4)CSC3=C2C#N)c1 (stereo not drawn) | > 30 µM (inactive) |
| Cc1cc(NC(=O)COC(=O)c2cc(S(=O)(=O)N3CCOCC3)ccc2N2CCCCC2)no1 | 10.1 µM |
| c1ccc(-c2noc(CSc3nnnn3-c3ccccc3)n2)cc1 | > 30 µM (inactive) |

| Compound | AC50 |
| --- | --- |
| COc1ccc(OC)c(C2CC(=O)Nc3n[nH]c(-c4ccccc4)c32)c1 (stereo not drawn) | > 30 µM (inactive) |
| CCCCSc1nc(C)[nH]c1[N+](=O)[O-] | > 30 µM (inactive) |
| CCOC(=O)N1CCC(NC(=O)CCc2nc(C3=CCN(C)CC3)no2)CC1 | > 30 µM (inactive) |
| Cc1ccc2c(c1)COc1c3ccc(C(=O)N4CCCCC4)cc3nn1-2 | > 30 µM (inactive) |
| O=C1CCCC2=C1C(c1ccc(Br)cc1)c1c([nH]c(=S)[nH]c1=O)N2 (stereo not drawn) | > 30 µM (inactive) |
| O=C(Nc1ncc([N+](=O)[O-])s1)c1ccc2c(c1)OCO2 | > 30 µM (inactive) |
| COc1ccc(C(=O)C[n+]2cccc(Br)c2)cc1 | > 30 µM (inactive) |
| CCCc1cc(NCc2ccccn2)n2c(nc3ccccc32)c1C#N | > 30 µM (inactive) |
| CC(=O)Oc1cc(O)c2c(=O)c(OC(C)=O)c(-c3ccc(OC(C)=O)c(OC(C)=O)c3)oc2c1 | 15.4 µM |
| CCOc1cc(/C=N/O)ccc1OCc1ccc([N+](=O)[O-])cc1 | > 30 µM (inactive) |
| COc1ccc([N+](=O)[O-])cc1NC(=O)CCN1CCN(C)CC1 | > 30 µM (inactive) |
| Clc1ccc(/C=N/Nc2ncnc3ccccc23)cc1Cl | > 30 µM (inactive) |
| COc1cccc(Nc2ncnc3nc[nH]c23)c1 | 19.7 µM |
| Brc1ccc(-c2nnc3ccc(Nc4ccccc4)nn23)cc1 | > 30 µM (inactive) |
| N#CC1=C2SCN(Cc3ccco3)CN2C(=O)CC1c1cccc2ccccc12 (stereo not drawn) | > 30 µM (inactive) |
| CCc1cc2c(NCc3ccco3)ncnc2s1 | > 30 µM (inactive) |
| NS(=O)(=O)c1ccc(Nc2nc(-c3cccnc3)cs2)cc1 | > 30 µM (inactive) |
| COc1cc(/C=N/NC(=O)c2ccoc2C)ccc1O | > 30 µM (inactive) |
| O=C(CSc1nnc(-c2ccc(O)cc2)o1)Nc1ccccc1 | 16.3 µM |
| Cc1cc(O)c(Oc2cc(C)cc(O)c2O)c(O)c1 | > 30 µM (inactive) |
| Nc1nonc1-n1nnc(C(=O)N/N=C/c2ccncc2)c1CSc1ccc(Cl)cc1 | > 30 µM (inactive) |
| Cc1sc2ncnc(NCc3ccco3)c2c1C | > 30 µM (inactive) |
| N#Cc1cnn2c3c(cnc12)C(=O)N1CCc2ccccc2C1C3 (stereo not drawn) | > 30 µM (inactive) |
| COC(=O)C1=C(C(=O)OC)C(c2cc(Cl)ccc2O)c2sc(=O)[nH]c2S1 (stereo not drawn) | 28.4 µM |
| CCOC(=O)c1ccc(NC(=O)CSCc2ccco2)cc1 | > 30 µM (inactive) |
| Nc1nonc1-n1nnc(C(=O)N/N=C/c2cccs2)c1CSc1ccccc1 | > 30 µM (inactive) |

| Compound | AC50 |
| --- | --- |
| O=S(=O)(Nc1ccccc1O)c1cccc2cccnc12 | > 30 µM (inactive) |
| Cc1ccc(CSCCNC(=O)c2ccc(C)cc2)cc1 | > 30 µM (inactive) |
| O=C(c1ccccc1)c1cnc(Nc2ccccc2Cl)s1 | > 30 µM (inactive) |
| O=Cc1cn(-c2ccccc2)nc1-c1cccnc1 | > 30 µM (inactive) |
| COc1ccc(-n2c(O)c(C(C)=NCCCn3ccnc3)c(=O)[nH]c2=O)cc1 | 19 µM |
| CCN1CCN(Cc2cc(OC)c(OC)cc2[N+](=O)[O-])CC1 | > 30 µM (inactive) |
| O=C(NCC1CCN(Cc2ccccc2Cl)CC1)Nc1ccccc1F | > 30 µM (inactive) |
| CC1CCCCC12NC(=O)N(CC(=O)Nc1sccc1C(N)=O)C2=O (stereo not drawn) | > 30 µM (inactive) |
| CCOC(=O)c1c(NC(=O)Cc2cccs2)sc2c1CCCC2 | > 30 µM (inactive) |
| Nc1ncnc2c1ncn2[C@@H]1O[C@H](COS(=O)(=O)O)[C@@H](O)[C@H]1O | > 30 µM (inactive) |
| CCCCOC(=O)C1=C(C)Nc2ncnn2C1c1ccc(OC)c(OC)c1 (stereo not drawn) | > 30 µM (inactive) |
| CCOC(=O)c1cnc2c(Cl)c(Cl)ccc2c1N1CCN(C)CC1 | > 30 µM (inactive) |
| COc1cccc(-c2[nH]nc3c2C(c2ccc(C)o2)C(C#N)=C(N)O3)c1 (stereo not drawn) | > 30 µM (inactive) |
| Fc1ccccc1/C=N/Nc1ncnc2ccccc12 | > 30 µM (inactive) |
| O=C1CC(/C=C/c2ccncc2)=Nc2ccccc2N1 | 13.1 µM |
| Cc1cccc(OCC(=O)Nc2ccc3c(c2)C(=O)NC3=O)c1 | > 30 µM (inactive) |
| Cc1nc(NC(=O)c2ccccc2)sc1Cc1ccc2c(c1)OCO2 | > 30 µM (inactive) |
| CCc1ccc(OCC(O)CNC(C)(C)C)cc1 (stereo not drawn) | > 30 µM (inactive) |
| Cc1ccnc(NC(=O)CCC(=O)N(CC(=O)NCc2ccccc2)Cc2ccc(F)cc2)c1 | 25 µM |
| CCSc1nc(N)c(C#N)c(-c2ccco2)c1C#N | > 30 µM (inactive) |
| Cc1ccc2oc(=O)c3cnn(CC(=O)N4CCc5ccccc5C4)c3c2c1 | > 30 µM (inactive) |
| COC(=O)c1sc2cnccc2c1N | 24.8 µM |
| COc1ccc(C2=Nn3c(nnc3-c3ccncc3)SC2)cc1OC | 2.37 µM |
| O=C(O)Cn1c(=O)c2c3c(sc2n(Cc2ccc(F)cc2)c1=O)CCCC3 | > 30 µM (inactive) |
| CN1CCN(c2ccc(NC(=O)c3ccc(Br)o3)cc2)CC1 | > 30 µM (inactive) |
